{"source": "paper PMC10781691", "about": "“Vertical pathway inhibition of receptor tyrosine kinases and BAD with synergistic efficacy in triple negative breast cancer” (NPJ Precision Oncology, 2024)", "key": {"VEGFR2": {"tested_on": "VEGFR2", "details": "ref SelleckChem; read-out: IC50 VEGFR2; cited from earlier work"}, "c-Met": {"tested_on": "c-Met", "details": "cited from earlier work"}, "Axl": {"tested_on": "Axl", "design": "method as in SelleckChem", "details": "ref SelleckChem; cited from earlier work"}, "Flt-3": {"tested_on": "Flt-3", "design": "method as in SelleckChem", "details": "ref SelleckChem; cited from earlier work"}, "Ron": {"tested_on": "Ron", "design": "method as in SelleckChem", "details": "ref SelleckChem; cited from earlier work"}, "Src": {"tested_on": "Src", "design": "method as in SelleckChem", "details": "ref SelleckChem; cited from earlier work"}, "ErbB2": {"tested_on": "ErbB2", "design": "method as in SelleckChem", "details": "ref SelleckChem; cited from earlier work"}, "MEK/ERK": {"tested_on": "MEK/ERK", "design": "method as in SelleckChem", "details": "ref SelleckChem; cited from earlier work"}, "Raf1": {"tested_on": "Raf1", "design": "method as in SelleckChem", "details": "ref SelleckChem; cited from earlier work"}, "c-Kit": {"tested_on": "c-Kit", "details": "ref SelleckChem; read-out: IC50 c-Kit; cited from earlier work"}, "VEGFR3": {"tested_on": "VEGFR3", "design": "method as in SelleckChem", "details": "ref SelleckChem; cited from earlier work"}, "PDGFR-β": {"tested_on": "PDGFR-β", "design": "method as in SelleckChem", "details": "ref SelleckChem; cited from earlier work"}, "Tie-2": {"tested_on": "Tie-2", "design": "method as in SelleckChem", "details": "ref SelleckChem; cited from earlier work"}, "[1]": {"tested_on": "BAD phosphorylation at Ser99", "test": "Western blot of BAD phosphorylation at Ser99 in TNBC cells", "format": "cell-based, human", "details": "MDA-MB-231 and BT549 cells, 1 μM"}, "[2]": {"tested_on": "MAPK and PI3K/AKT pathways", "test": "Western blot of PI3K/AKT and MAPK pathway proteins", "format": "cell-based, human", "description": "Next, western blot analyses were performed to determine potential alteration in expression or activity of the target proteins along the MAPK and PI3K/AKT pathways. […] . […] CI analysis method."}, "MDA-MB-231 xenografts": {"tested_on": "MDA-MB-231 xenografts", "test": "Orthotopic xenograft, combination study", "format": "in vivo, BALB/c-nude mice", "description": "(§1) In vivo bioluminescent imaging was performed to determine the incidence and metastatic burden of luciferase-labeled 4T1 cells. Mice were injected i.p. with 10 mg/ml of D-luciferin (Gold Biotechnology, MO, USA) and imaged using a PerkinElmer IVIS Spectrum system. PDX were generated as previously described by transplanting fresh fragments orthotopically into 8-week-old female nonobese diabetic (NOD)/severe combined immunodeficient (SCID) mice (Beijing Vital River Laboratory Animal Technology Co., Beijing, China) (P1, passage 1)[40]. The P1 xenografts were then fragmented, digested into single-cell suspension and implanted into mammary fat pad (100 μL PBS containing growth factor reduced 50% Matrigel) of NOD/SCID mice. Once orthotopic xenografts reached an approximate size of 100 mm^3, the mice were randomly divided into three groups (n = 8) for single drug studies and six groups (n = 6) for combination studies and Kaplan-Meier (KM) analyses. […] Animal body weight and xenograft size were measured daily using an electronic balance and a digital caliper, respectively. Xenograft volume (mm^3) was calculated by using the formula: 0.52 × length × [width]^2. Complete response (CR) was achieved if the average xenograft volume for the treatment group was unable to be determined for two or more consecutive measurements. Partial response (PR) was achieved if the average xenograft volume reduced to <50 mm^3 for two or more consecutive measurements. After 3-week drug treatment, all mice were sacrificed by CO2 inhalation. Tumor and vital organs were weighed and isolated for further analysis. IHC analysis of xenograft histology sections and quantitative polymerase chain reaction (qPCR) were performed as previously described.\nData represent means ± SD. *P < 0.05, **P < 0.01, and ***P < 0.001.\nData represent means ± SD (n=6). *P < 0.05, **P\n< 0.01, and ***P < 0.001.\nAbbreviations: ALT/GOT, alanine\naminotransferase/ glutamic oxaloacetic transaminase; AST/GPT, aspartate aminotransferase/\nglutamic pyruvic transaminase; CREA, creatinine; UREA, urea; and ALB, albumin. Data\nrepresent means ± SD. *P < 0.05, **P < 0.01, and ***P < 0.001."}, "BT549 cells": {"tested_on": "BT549 cells", "test": "Foci formation (crystal violet)", "details": "BT549, 5 μM each"}, "USTC-0 PDX": {"tested_on": "USTC-0 PDX", "test": "TNBC patient-derived xenograft", "format": "in vivo, NOD/SCID mice", "description": "(§2) The effect of drug treatments on two patient-derived xenograft (PDX) models of TNBC, USTC-0 and USTC-1 were next examined. The use of the USTC-1 PDX was previously reported.\nas §1, with “described. […] For PDX, xenograft growth was monitored daily by measurement of the xenograft volume until mice humane endpoint ( ~ 1000 mm^3).” for “described.”"}, "USTC-1 PDX": {"tested_on": "USTC-1 PDX", "test": "TNBC patient-derived xenograft", "format": "in vivo, NOD/SCID mice", "description": "as §2\nas §1, with “described. […] For PDX, xenograft growth was monitored daily by measurement of the xenograft volume until mice humane endpoint ( ~ 1000 mm^3).” for “described.”"}, "4T1-luciferase cells": {"tested_on": "4T1-luciferase cells", "details": "4T1-luciferase metastasis model", "description": "Since metastasis is the primary contributor to mortality and poor prognosis for TNBC patients, the therapeutic potential of NCK, TKIs or combined NCK-TKI treatment on TNBC metastasis was further evaluated with an experimental lung metastasis model.\nas §1, with “described. […] For PDX, xenograft growth was monitored daily by measurement of the xenograft volume until mice humane endpoint ( ~ 1000 mm^3).” for “described.”\nluciferase cell generated metastasis model. Scale bar, 20 µm. (C) Animal weight of each\ntreatment group was indicated. (D) Changes in relative lung, liver, spleen, heart and kidney\n(CRI) or combinations during the study at day 9."}, "MDA-MB-231 cells": {"tested_on": "MDA-MB-231 cells", "test": "Foci formation (crystal violet)", "details": "MDA-MB-231, 5 μM each"}, "FGFR1": {"tested_on": "FGFR1", "details": "read-out: IC50 FGFR1; ref SelleckChem; cited from earlier work"}}, "note": "Where two headings read alike, the source gives them in different places.", "data": [{"smiles": "Nc1nccc(Oc2ccc(NC(=O)c3c[nH]cc(-c4ccc(F)cc4)c3=O)cc2F)c1Cl", "note": "[BMS-794833]", "values": [{"measurement": "IC50", "setting": "VEGFR2", "value": 15, "unit": "nM"}, {"measurement": "IC50", "setting": "c-Met; ref SelleckChem, read-out: IC50 c-Met", "value": 1.7, "unit": "nM"}, {"measurement": "IC50", "setting": "Axl", "value": "< 3", "unit": "nM"}, {"measurement": "IC50", "setting": "Flt-3", "value": "< 3", "unit": "nM"}, {"measurement": "IC50", "setting": "Ron", "value": "< 3", "unit": "nM"}]}, {"smiles": "CCOc1cc2ncc(C#N)c(Nc3ccc(F)c(Cl)c3)c2cc1NC(=O)/C=C/CN(C)C", "note": "[Pelitinib]", "values": [{"measurement": "IC50", "setting": "Src", "value": 282, "unit": "nM"}, {"measurement": "IC50", "setting": "ErbB2", "value": 1260, "unit": "nM"}, {"measurement": "IC50", "setting": "MEK/ERK", "value": 800, "unit": "nM"}]}, {"smiles": "CNC(=O)c1cc(Oc2ccc(NC(=O)Nc3ccc(Cl)c(C(F)(F)F)c3)cc2)ccn1", "note": "[Sorafenib]", "values": [{"measurement": "IC50", "setting": "Raf1", "value": 6, "unit": "nM"}, {"measurement": "IC50", "setting": "c-Kit", "value": 68, "unit": "nM"}, {"measurement": "IC50", "setting": "VEGFR3", "value": "[…]"}, {"measurement": "IC50", "setting": "PDGFR-β", "value": "[…]"}, {"measurement": "IC50", "setting": "Flt-3", "value": "[…]"}]}, {"smiles": "COc1ccc2cc(-c3nc(-c4ccc([S+](C)[O-])cc4)[nH]c3-c3ccncc3)ccc2c1", "note": "(centres unmarked) [Tie2 kinase inhibitor]", "values": [{"measurement": "IC50", "setting": "Tie-2", "value": 0.25, "unit": "nM"}]}, {"smiles": "C[C@@H](Oc1cc(-c2cnn(C3CCNCC3)c2)cnc1N)c1c(Cl)ccc(F)c1Cl", "note": "[Crizotinib]", "values": [{"measurement": "IC50", "setting": "c-Met; no reference given, read-out: potency on c-MET", "value": "[…]"}, {"measurement": "level of pBADSer99/BAD", "setting": "[1]", "value": "significantly decreased the level of pBADSer99/BAD"}, {"measurement": "phosphorylated and total proteins of MAPK and PI3K/AKT pathways", "setting": "[2]; BT549, 1 μM", "value": "significantly reduced the level of p-AKT (Ser473)/AKT"}, {"measurement": "phosphorylated and total proteins of MAPK and PI3K/AKT pathways", "setting": "[2]; MDA-MB-231, 1 μM", "value": "significantly inhibited the PI3K/AKT pathway"}, {"measurement": "% Regression: Complete Response (100%)", "setting": "MDA-MB-231 xenografts; MDA-MB-231 xenograft, day 21", "value": 17, "unit": "%"}, {"measurement": "% Regression: Partial Response (>50%)", "setting": "MDA-MB-231 xenografts; MDA-MB-231 xenograft, day 21", "value": 17, "unit": "%"}, {"measurement": "% Regression: Disease Progression", "setting": "MDA-MB-231 xenografts; MDA-MB-231 xenograft, day 21 (xenograft volume >100 mm^3)", "value": 66, "unit": "%"}, {"measurement": "complete regression of xenografts", "setting": "MDA-MB-231 xenografts; day 21, NCK 20 mg/kg q.d., OSI-930 20 mg/kg q.d., Crizotinib 50 mg/kg b.i.w.", "value": 16.67, "unit": "%"}, {"measurement": "2D foci formation", "setting": "BT549 cells", "value": "significantly attenuated the capacity for foci formation"}, {"measurement": "PDX xenograft volume", "setting": "USTC-0 PDX; USTC-0, 21 days treatment", "value": "significantly reduced the xenograft volume"}, {"measurement": "survival of PDX-bearing mice", "setting": "USTC-0 PDX; USTC-0, single agents vs vehicle, combinations vs OSI-930 or Crizotinib alone", "value": "markedly extended the survival"}, {"measurement": "Median survival", "setting": "USTC-0 PDX; USTC-0, vehicle 25.5", "value": 34.5, "unit": "days"}, {"measurement": "PDX xenograft volume", "setting": "USTC-1 PDX; USTC-1, 21 days treatment", "value": "significantly reduced the xenograft volume"}, {"measurement": "Median survival", "setting": "USTC-1 PDX; USTC-1, vehicle 22.5", "value": 27.0, "unit": "days"}, {"measurement": "lung metastases (bioluminescent signals) vs control", "setting": "4T1-luciferase cells", "value": "significantly abrogated lung metastases"}, {"measurement": "2D foci formation", "setting": "MDA-MB-231 cells", "value": "significantly attenuated the capacity for foci formation"}]}, {"smiles": "Cc1ccc(C(=O)Nc2ccc(CN3CCN(C)CC3)c(C(F)(F)F)c2)cc1C#Cc1cnc2cccnn12", "note": "[Ponatinib]", "values": [{"measurement": "IC50", "setting": "Src", "value": 5.4, "unit": "nM"}, {"measurement": "IC50", "setting": "FGFR1", "value": "[…]"}]}]}
